From US20070173787A1, “Thin-film nitinol based drug eluting stent” (priority 2005, published 2007)
One block for each compound: values may come before it.

What was measured:
[1] = Liquid formulations of water insoluble rapamycins: concentration (HPLC) and visual observation; format: physicochemical
Text: In accordance with exemplary embodiments of the present invention, a series of liquid formulations were developed for the local or regional delivery of water insoluble compounds such as sirolimus and its analogs, including CCI-779, ABT-578 and everolimus, through weeping balloons and catheter injection needles. […] These liquid formulations increase the apparent solubility of the pharmacologically active but water insoluble compounds by two to four orders. of magnitude as compared to the solubility limits of the compounds in water. These liquid formulations rely on the use of a very small amount of organic solvents such as Ethanol (typically less than two percent) and a larger amount of safe-amphiphilic (of or relating to a molecule having-a polar; water soluble group attached to a non-polar, water insoluble […]) excipients such as polyethylene glycol (PEG 200, PEG 400) and vitamin E TPGS to enhance the solubility of the compounds. These liquid formulations of highly. water insoluble compounds are stable and readily flowable at room temperature. Certain excipients, such as Vitamin E TPGS and BHT may be utilized to enhance the storage stability of sirolimus compounds through their anti-oxidation properties. […]

[2] = tested on: human coronary artery smooth muscle cells; assay: Anti-proliferative activity in non-synchronized cultured human coronary artery smooth muscle cells stimulated with two percent fetal bovine serum; format: cell-based; conditions: for effect of addition on the anti-proliferative rapamycin dose response curve: mycophenolic acid zero to one thousand nanomolar (FIG. 52), cladribine zero to nine hundred nanomolar (FIG. 57)
Text: The multiple curves represent various concentrations of mycophenolic acid ranging from zero to one thousand nanomolar concentrations.
FIG. 58 illustrates, in graphical format, the anti-proliferative activity of cladribine in non-synchronized cultured human coronary artery smooth muscle cells stimulated with two percent fetal bovine serum.
The multiple curves represent various concentrations of cladribine ranging from zero to nine hundred nanomolar concentrations.

[3] = In vivo release kinetics from stent coatings in porcine pharmacokinetics studies
Text: The topcoat is two hundred micro grams.
The basecoat is applied to Bx Velocity® stents and implanted into Yorkshire pigs.
Another critical parameter for the performance of the thrombus resistance of a device coated with cilostazol is the duration of the drug release from the coating. This is of particular significance in the two weeks after device implantation. […] The purpose of the porcine PK study is to assess the local pharmacokinetics of a drug eluting stent at a given implantation time. Normally three stents are implanted in three different coronary arteries in a pig for a given time point and then retrieved for total drug recovery analysis. The stents are retrieved at predetermined time points; namely, 1, 3 and 8 days. The stents are extracted and the total amount of drug remaining on the stents is determined by analysis utilizing HPLC (high performance liquid chromatography) for total drug amount. The difference between the original amount of drug on the stent and the amount of drug retrieved at a given time represents the amount of drug released in that period. The continuous release of drug into surrounding arterial tissue is what prevents the neointimal growth and restenosis in the coronary artery. A normal plot represents the percentage of total drug released (%, y-axis) vs. time of implantation (day, x-axis). […] In this exemplary configuration, the stent 8600 is coated with two layers. The first layer 8602 comprises a combination of sirolimus, cilostazol and a copolymer matrix of EVA/BMA. The second layer or diffusion overcoat 8604 comprises only BMA. More specifically, in this embodiment, the first layer 8602 comprises a combination of sirolimus and cilastazol that is forty-five (45) percent by weight of the total weight of the first layer 8602 and an EVA/BMA copolymer matrix that is fifty-five (55) percent by weight of the total weight of the first layer 8602. The diffusion overcoat comprises one hundred (100 μg) micrograms of BMA.
Pigs are an established animal species for intravascular stent studies and accepted for such studies by the appropriate regulatory agencies. This in vivo study utilized male pigs of the species Sus Scrofa and strain Yoorkshire pigs. S.M.A.R.T.™ stents, available from Cordis Corporation, were placed into the iliac and femoral arteries, PALMAZ® GENESIS™ stents, available from Cordis Corporation, were placed in the renal arteries and CYPHER™ stents, available from Cordis Corporation, were placed in the coronary arteries.

[4] = Cell viability assay (cytotoxicity); format: cell-based
Text: (§1) The multiple curves represent various concentrations of topotecan ranging from zero to three hundred nanomolar concentrations.
(§2) The multiple curves represent various concentrations of etoposide ranging from zero to eight hundred nanomolar concentrations.

[5] = tested on: human coronary artery smooth muscle cells; assay: Anti-proliferative activity in synchronized cultured human coronary artery smooth muscle cells stimulated with two percent fetal bovine serum; format: cell-based; conditions: topotecan to 300 nanomolar (FIG. 64), etoposide to eight hundred nanomolar (FIG. 65), Panzem to 100 micromolar (FIG. 68)
Text: as §1, §2
The multiple curves represent various concentrations of Panzem® ranging from zero to 100 micromolar concentrations.

[6] = tested on: elastase-induced abdominal aortic aneurysms; assay: Elastase-induced rat model of abdominal aortic aneurysm; format: in vivo; conditions: 15 mg/kg/day; for inhibition of aortic dilatation induced by elastase perfusion: vs saline, FIG. 77
Text: The following example is provided to assist in a further understanding of the present invention. The particular materials and conditions employed are intended to be further illustrative of the invention and are not limiting upon the reasonable scope thereof Male Wistar rats (350-400 g) were subjected to perfusion of an isolated segment of the infrarenal abdominal aorta with 50 units of porcine pancreatic elastase, using the method described by Anidjar et al. (Anidjar, S. Salzmann, J L, Generic, D, Lagneau, P, Camilleri, J P, and Michel, J B, “Elastase induced experimental aneurysms in rats,” Circulation 82:973-981 (1990); Halpern et al. (Halpern, V J. Liao, Nackman, G B, Gandhi, R H, Irizarry, E, Scholes, J V, Ramey, W G, and Tilson, M D, “The elastase infusion model of experimental aortic aneurysms: Synchrony of induction of endogenous protinases with matrix destruction and inflammatory cell response, “J. Vasc. Surg. […] Surg 23:336-346(1996)). This method is an accepted model for experimental induction of abdominal aortic aneurysms. The animals (n=6 rats in each group) were then treated with twice-daily subcutaneous injections of either saline vehicle (control), or various doses of doxycycline (Dox) or one of four different, non-antibiotic, chemically-modified tetracyclines (CMTs; CollaGenex, Inc., Newtown, Pa.). Aortic diameter (AD) was measured with microcalipers before and after elastase perfusion, and just prior to sacrifice on day 7. Abdominal aortic aneurysms were defined as an increase in final AD to at least twice that measured before perfusion (≥100% increase). Aortic tissues from two animals in each group were perfusion-fixed with 10% neutral buffered formalin, embedded in paraffin, and stained with Verhoeff-van Geisen (VVG) for elastin. Tissues from the remaining animals were extracted, normalized to total protein, and analyzed by gelatin substrate zymography as described (Thompson et al. 1995; Halpern et al. 1994; Petrinec 1996).

tumor cell lines = conditions: cited from earlier work
[7] = tested on: human coronary artery smooth muscle cell; assay: In vitro cell culture study of human coronary artery smooth muscle cell proliferation (trichostatin A); format: cell-based
Text: FIG. 51 is a graph of the inhibition of coronary artery smooth muscle cells by trichostatin A in a cell culture study.

- concentration in the final solution (HPLC assay) ([1]; ethanol (less than two percent), Vitamin E TPGS and water): 15000 µg/mL
Compound: CO[C@H]1C[C@@H]2CC[C@@H](C)[C@@](O)(O2)C(=O)C(=O)N2CCCC[C@H]2C(=O)O[C@H]([C@H](C)C[C@@H]2CC[C@@H](OC(=O)C(C)(CO)CO)[C@H](OC)C2)CC(=O)[C@H](C)/C=C(\C)[C@@H](O)[C@@H](OC)C(=O)[C@H](C)C[C@H](C)/C=C/C=C/C=C/1C [CCl-779]

- in vivo elution from the polymeric stent coating, comparison ([3]; EVA/BMA basecoat with rapamycin and cladribine, BMA topcoat, FIGS. 62, 63): elutes more rapidly than rapamycin
Compound: Nc1nc(Cl)nc2c1ncn2[C@H]1C[C@H](O)[C@@H](CO)O1 [Cladribine, 2-chlorodeoxyadenosine]
- inhibition of human coronary artery smooth muscle cell proliferation ([2]; FIG. 58): completely inhibits
- effect of addition on the anti-proliferative rapamycin dose response curve [2]: potentiate the anti-proliferative activity of rapamycin

Compound: CC[C@@]1(O)C(=O)OCc2c1cc1n(c2=O)Cc2cc3c(CN(C)C)c(O)ccc3nc2-1 [topotecan]
- cytotoxicity in cell viability assay ([4]; at concentrations up to one micromolar): non-cytotoxic
- effect of addition on the anti-proliferative rapamycin dose response curve [5]: potentiate the anti-proliferative activity of rapamycin

Compound: C[C@H]1c2cccc(O)c2C(O)=C2C(=O)[C@]3(O)C(O)=C(C(N)=O)C(=O)C[C@@H]3[C@@H](O)[C@@H]21 [CMT-8, 6-α-deoxy-5-hydroxy-4-dedimethylaminotetracycline]
- relative efficacy in suppressing aneurysmal dilatation compared to Dox at the same dose [6]: 105%
- inhibition of aortic dilatation induced by elastase perfusion [6]: statistically significant

Compound: 4-dedimethylamino-12a-deoxytetracycline [CMT-7]
- relative efficacy in suppressing aneurysmal dilatation compared to Dox at the same dose [6]: 92%
- inhibition of aortic dilatation induced by elastase perfusion [6]: statistically significant

Compound: COc1c(C)c2c(c(O)c1C/C=C(\C)CCC(=O)O)C(=O)OC2 [mycophenolic acid]
- effect of addition on the anti-proliferative rapamycin dose response curve [2]: potentiates the anti-proliferative activity of rapamycin
- in vivo release from the basecoat, comparison ([3]; EVA/BMA basecoat with rapamycin and mycophenolic acid, BMA topcoat, FIGS. 53, 54): elutes more completely over a shorter duration than the rapamycin

Compound: CC(/C=C/C(=O)NO)=C\[C@@H](C)C(=O)c1ccc(N(C)C)cc1 [trichostatin A]
- anti-proliferative IC50 (tumor cell lines): low nM range
- IC50 ([7]; human coronary artery smooth muscle cell proliferation, read-out: anti-proliferative IC50): ~6 nM
- inhibition of human coronary artery smooth muscle cell proliferation ([7]; in vitro cell culture): completely inhibit

Compound: CC1(O)c2c(Cl)ccc(O)c2C(=O)C2=C(O)C3(O)C(=O)C(C(N)=O)=C(O)CC3CC21 (centres unmarked) [CMT-4, 4-dedimethylamino-7-chlorotetra-cycline]
- relative efficacy in suppressing aneurysmal dilatation compared to Dox at the same dose [6]: 75%
- inhibition of aortic dilatation induced by elastase perfusion [6]: did not reach statistical significance

- concentration relative to the solubility of sirolimus in water ([1]; 4 mg/ml PEG 200 formulation): four hundred to about one thousand
- peak elution release at three days ([3]; PVDF/HFP (60/40) and rapamycin basecoat with 167 microgram PVDF/HFP topcoat, curve 4902): greater than seventy-five
- peak elution release at three days ([3]; PVDF/HFP (60/40) and rapamycin basecoat with 490 microgram BMA topcoat, curve 4912): less than fifty
- drug remaining in the drug coating ([3]; after eight (8) days of implantation, single layer sirolimus/cilostazol EVA/BMA coating with 100 μg BMA overcoat (FIG. 86), FIG. 84): ~80%
Compound: CO[C@H]1C[C@@H]2CC[C@@H](C)[C@@](O)(O2)C(=O)C(=O)N2CCCC[C@H]2C(=O)O[C@H]([C@H](C)C[C@@H]2CC[C@@H](O)[C@H](OC)C2)CC(=O)[C@H](C)/C=C(\C)[C@@H](O)[C@@H](OC)C(=O)[C@H](C)C[C@H](C)/C=C/C=C/C=C/1C [rapamycin]
- in vivo release rate, comparison ([3]; PVDF basecoat with rapamycin and mycophenolic acid, PVDF topcoat, FIG. 56): slower release rate than that of mycophenolic acid

Compound: NC(=O)C1=C(O)C[C@@H]2C[C@@H]3Cc4cccc(O)c4C(=O)C3=C(O)[C@]2(O)C1=O [CMT-3, 6-demethyl-6-deoxy-4-dedimethylaminotetracycline]
- relative efficacy in suppressing aneurysmal dilatation compared to Dox at the same dose [6]: 92%
- inhibition of aortic dilatation induced by elastase perfusion [6]: statistically significant

Compound: COc1cc([C@@H]2c3cc4c(cc3[C@@H](O[C@@H]3O[C@@H]5CO[C@@H](C)O[C@H]5[C@H](O)[C@H]3O)[C@H]3COC(=O)[C@H]23)OCO4)cc(OC)c1O [etoposide]
- cytotoxicity in cell viability assay ([4]; at concentrations up to ten micromolar): non-cytotoxic
- effect of addition on the anti-proliferative rapamycin dose response curve [5]: increases the percent inhibition of rapamycin alone
